Reference: US20130171098A1, “Cyclopropyl Fused Indolobenzazepine HCV NS5B Inhibitors” (priority 2006, published 2013)
Read-outs that look alike come from different tables or passages of the source.

Tests used:
[1] = target: T1, HCV NS5B RdRp genotype 1b (Hepatitis C virus genotype 1b, UniProt Q9WMX2); test: HCV NS5B RdRp enzyme assay (standard / modified); format: biochemical
T1 construct: The protein was expressed with an 18 amino acid C-terminal truncation to enhance the solubility; made in house; host or cells: E. coli BL21(DE3), pET21a vector
T1 sequence (Q9WMX2 2420-2992): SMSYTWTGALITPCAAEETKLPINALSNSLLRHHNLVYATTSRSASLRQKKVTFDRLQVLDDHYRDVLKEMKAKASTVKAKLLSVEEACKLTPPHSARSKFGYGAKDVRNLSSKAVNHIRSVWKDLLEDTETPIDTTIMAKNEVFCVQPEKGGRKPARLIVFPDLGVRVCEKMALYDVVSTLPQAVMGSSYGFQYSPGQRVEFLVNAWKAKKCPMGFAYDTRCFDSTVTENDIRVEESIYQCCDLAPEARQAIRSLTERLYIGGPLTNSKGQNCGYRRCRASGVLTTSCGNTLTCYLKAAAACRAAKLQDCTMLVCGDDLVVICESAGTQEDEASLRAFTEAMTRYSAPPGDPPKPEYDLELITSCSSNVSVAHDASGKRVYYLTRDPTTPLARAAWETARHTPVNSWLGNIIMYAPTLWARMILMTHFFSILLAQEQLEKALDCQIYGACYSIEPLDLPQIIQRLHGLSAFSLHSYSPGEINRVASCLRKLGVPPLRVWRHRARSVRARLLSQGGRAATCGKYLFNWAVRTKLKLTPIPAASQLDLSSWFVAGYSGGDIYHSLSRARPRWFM
Procedure: HCV NS5B RdRp Cloning, Expression, and Purification.
The cDNA encoding the NS5B protein of HCV, genotype 1b, was cloned into the pET21a expression vector. The protein was expressed with an 18 amino acid C-terminal truncation to enhance the solubility. The E. coli competent cell line BL21(DE3) was used for expression of the protein. Cultures were grown at 37° C. for ˜4 hours until the cultures reached an optical density of 2.0 at 600 nm. The cultures were cooled to 20° C. and induced with 1 mM IPTG. Fresh ampicillin was added to a final concentration of 50 μg/ml and the cells were grown overnight at 20° C.
The lysis buffer consisted of 20 mM Tris-HCl, pH 7.4, 500 mM NaCl, 0.5% triton X-100, 1 mM DTT, 1 mM EDTA, 20% glycerol, 0.5 mg/ml lysozyme, 10 mM MgCl2, 15 ug/ml deoxyribonuclease I, and Complete TM protease inhibitor tablets (Roche). After addition of the lysis buffer, frozen cell pellets were resuspended using a tissue homogenizer. To reduce the viscosity of the sample, aliquots of the lysate were sonicated on ice using a microtip attached to a Branson sonicator. The sonicated lysate was centrifuged at 100,000×g for 1 hr at 4° C. and filtered through a 0.2 μm filter unit (Corning).
The protein was purified using two sequential chromatography steps: Heparin sepharose CL-6B and polyU sepharose 4B (Pharmacia). The chromatography buffers were identical to the lysis buffer but contained no lysozyme, deoxyribonuclease I, MgCl2 or protease inhibitor and the NaCl concentration of the buffer was adjusted according to the requirements for charging the protein onto the column. Each column was eluted with a NaCl gradient which varied in length from 5-50 column volumes depending on the column type. […] The enzyme was aliquoted and stored at −80° C.
Standard HCV NS5B RdRp Enzyme Assay.
HCV RdRp genotype 1b assays were run in a final volume of 60 μl in 96 well plates (Corning 3600). The assay buffer is composed of 20 mM Hepes, pH 7.5, 2.5 mM KCl, 2.5 mM MgCl2, 1 mM DTT, 1.6 U RNAse inhibitor (Promega N2515), 0.01 mg/ml BSA (Sigma B6917), and 2% glycerol. All compounds were serially diluted (3-fold) in DMSO and diluted further in water such that the final concentration of DMSO in the assay was 2%. HCV RdRp genotype 1b enzyme was used at a final concentration of 28 nM. A polyA template was used at 6 nM, and a biotinylated oligo-dT12 primer was used at 180 nM final concentration. Template was obtained commercially (Amersham 27-4110). Biotinylated primer was prepared by Sigma Genosys. 3H-UTP was used at 0.6 μCi (0.29 μM total UTP). Reactions were initiated by the addition of enzyme, incubated at 30° C. for 60 min, and stopped by adding 25 μl of 50 mM EDTA containing SPA beads (4 μg/μl, Amersham RPNQ 0007). Plates were read on a Packard Top Count NXT after >1 hr incubation at room temperature.
Modified HCV NS5B RdRp Enzyme Assay.
A modified enzyme assay was performed essentially as described for the standard enzyme assay except for the following: The biotinylated oligo dT12 primer was precaptured on streptavidin-coated SPA beads by mixing primer and beads in assay buffer and incubating at room temperature for one hour. Unbound primer was removed after centrifugation. The primer-bound beads were resuspended in 20 mM Hepes buffer, pH 7.5 and used in the assay at final concentrations of 20 nM primer and 0.67 μg/μl beads. Order of addition in the assay: enzyme (1.75 nM) was added to diluted compound followed by the addition of a mixture of template (0.36 nM), 3H-UTP (0.6 μCi, 0.29 μM), and primer-bound beads, to initiate the reaction; concentrations given are final. Reactions were allowed to proceed for 4 hours at 30° C.
IC50 values for compounds were determined using seven different [I].

HCV replicon cells = test: HCV replicon FRET / luciferase assay; format: cell-based, Hepatitis C virus
Procedure: The HCV FRET screening assay was performed in 96-well cell culture plates. The FRET peptide (Anaspec, Inc.) (Taliani et al., Anal. Biochem. 1996, 240, 60-67) contains a fluorescence donor, EDANS, near one end of the peptide and an acceptor, DABCYL, near the other end. The fluorescence of the peptide is quenched by […] resonance energy transfer (RET) between the donor and the acceptor, but as the NS3 protease cleaves the peptide the products are released from RET quenching and the fluorescence of the donor becomes apparent. The assay reagent was made as follows: 5× cell Luciferase cell culture lysis reagent from Promega (#E153A) diluted to 1× with dH2O, NaCl added to 150 mM final, the FRET peptide diluted to 20 μM final from a 2 mM stock.
To prepare plates, HCV replicon cells, with or without a Renilla luciferase reporter gene, were trypsinized and plated in a 96-well plate with titrated test compounds added in columns 3 through 12; columns 1 and 2 contained a control compound (HCV control inhibitor), and the bottom row contained cells with DMSO only. The plates were then placed in a CO2 incubator at 37° C.
Subsequent to addition of the test compounds described above (FRET Assay Preparation), at various times the plate was removed and Alamar blue solution (Trek Diagnostics, #00-100) was added to measure cellular toxicity. After reading in a Cytoflour 4000 instrument (PE Biosystems), plates were rinsed with PBS and then used for FRET assay by the addition of 30 ul of the FRET peptide assay reagent described above (FRET Assay Preparation) per well. The plate was then placed into the Cytoflour 4000 instrument which had been set to 340 excite/490 emission, automatic mode for up to 20 cycles and the plate read in a kinetic mode. Typically, the signal to noise using an endpoint analysis after the reads was at least three-fold. Alternatively, after Alamar blue reading, plates were rinsed with PBS, then used for luciferase assay using the Promega Dual-Glo Luciferase Assay System or the Promega EnduRen Live Cell Substrate assay.
Compound analysis was performed by quantification of the relative HCV replicon inhibition and the relative cytotoxicity values. To calculate cytoxicity values, the average Alamar Blue fluorescence signals from the control wells were set as 100% non-toxic. The individual signals in each of the compound test wells were then divided by the average control signal and multiplied by 100% to determine […]. To calculate the HCV replicon inhibition values, an average background value was obtained from the two wells containing the highest amount of HCV control inhibitor at the end of the assay period. These numbers were similar to those obtained from naïve Huh-7 cells. The background numbers were then subtracted from the average signal obtained from the control wells and this number was used as 100% activity. The individual signals in each of the compound test wells were then divided by the averaged control values after background subtraction and multiplied by 100% to determine percent activity. […] The two numbers generated for the compound plate, percent cytoxicity and percent activity, were used to determine compounds of interest for further analysis.

[2] = HCV NS5B RdRp genotype 1b enzyme, read-out: IC50
[3] = Hepatitis C virus, HCV replicon cells, FRET or luciferase activity, read-out: EC50

SMILES | IC50 [1] | EC50 (HCV replicon cells; Hepatitis C virus) | further results
COc1ccc2c(c1)C1CC1(C(=O)N1CC3CCC(C1)N3C(=O)OC(C)(C)C)Cn1c-2c(C2CCCCC2)c2ccc(C(=O)NS(=O)(=O)N(C)C)cc21 (stereo not drawn) | < 20 nM | 1 to 500 nM | 
COc1ccc2c(c1)C1CC1(C(=O)N1CC3CCC(C1)N3)Cn1c-2c(C2CCCCC2)c2ccc(C(=O)NS(=O)(=O)N(C)C)cc21 (stereo not drawn) | 1 to 500 nM | 1 to 500 nM | 
COc1ccc2c(c1)C1CC1(C(=O)N1C3CCC1CN(C)C3)Cn1c-2c(C2CCCCC2)c2ccc(C(=O)NS(=O)(=O)C3CC3)cc21 (stereo not drawn) | 1 to 500 nM | 1 to 500 nM | 
COc1ccc2c(c1)[C@@H]1C[C@]1(C(=O)N1C3CCC1CN(C)C3)Cn1c-2c(C2CCCCC2)c2ccc(C(=O)NS(=O)(=O)N(C)C)cc21 |  |  | IC50 [1, 2]: 1 to 500 nM; EC50 (HCV replicon cells; [3]): 1 to 500 nM
COc1ccc2c(c1)[C@H]1C[C@@]1(C(=O)N1[C@@H]3CC[C@H]1CN(C)C3)Cn1c-2c(C2CCCCC2)c2ccc(C(=O)NS(=O)(=O)N(C)C)cc21 |  |  | IC50 [1, 2]: 1 to 500 nM; EC50 (HCV replicon cells; [3]): 1 to 500 nM
COc1ccc2c(c1)C1CC1(CN1C3CCC1CN(C)C3)Cn1c-2c(C2CCCCC2)c2ccc(C(=O)NS(=O)(=O)N(C)C)cc21 (stereo not drawn) | 1 to 500 nM | 1 to 500 nM | 
COc1ccc2c(c1)C1CC1(C(=O)N1C3CCC1CN(C(=O)OCc1ccccc1)C3)Cn1c-2c(C2CCCCC2)c2ccc(C(=O)NS(=O)(=O)N(C)C)cc21 (stereo not drawn) | 1 to 500 nM | 1 to 500 nM | 
COc1ccc2c(c1)C1CC1(C(=O)N1C3CCC1CN(C)C3)Cn1c-2c(C2CCCCC2)c2ccc(C(=O)NS(=O)(=O)N3CCCC3)cc21 (stereo not drawn) | 1 to 500 nM | 1 to 500 nM | 
COc1ccc2c(c1)[C@@H]1CC1[C@@H](C(=O)N1C3CCC1CN(C)C3)n1c-2c(C2CCCCC2)c2ccc(C(=O)N(C)S(=O)(=O)N(C)C)cc21 (stereo partly drawn) | > 500 nM | > 40 nM | 
COc1ccc2c(c1)C1CC1(C(=O)N1C3CCC1CN(C)C3)Cn1c-2c(C2CCCCC2)c2ccc(C(=O)NS(=O)(=O)C3CCCCC3)cc21 (stereo not drawn) | 1 to 500 nM | 1 to 500 nM | 
CCCCS(=O)(=O)NC(=O)c1ccc2c(C3CCCCC3)c3n(c2c1)CC1(C(=O)N2C4CCC2CN(C)C4)CC1c1cc(OC)ccc1-3 (stereo not drawn) | 1 to 500 nM | 1 to 500 nM | 
CCC(C)S(=O)(=O)NC(=O)c1ccc2c(C3CCCCC3)c3n(c2c1)CC(C(=O)N1C2CCC1CN(C)C2)=Cc1cc(OC)ccc1-3 (stereo not drawn) | 1 to 500 nM | 1 to 500 nM | 
CCC(CC)S(=O)(=O)NC(=O)c1ccc2c(C3CCCCC3)c3n(c2c1)CC1(C(=O)N2C4CCC2CN(C)C4)CC1c1cc(OC)ccc1-3 (stereo not drawn) | 1 to 500 nM | > 110 nM | 
COc1ccc2c(c1)[C@@H]1CC1(C(=O)N1C3CCC1CN(C)C3)Cn1c-2c(C2CCCCC2)c2ccc(C(=O)NS(=O)(=O)C3CCC3)cc21 (stereo partly drawn) | 1 to 500 nM |  | EC50 (HCV replicon cells; [3]): 1 to 500 nM
COc1ccc2c(c1)[C@@H]1CC1(C(=O)N1C3CCC1CN(C)C3)Cn1c-2c(C2CCCCC2)c2ccc(C(=O)NS(=O)(=O)CC(C)C)cc21 (stereo partly drawn) | 1 to 500 nM |  | EC50 (HCV replicon cells; [3]): 1 to 500 nM
COc1ccc2c(c1)C1CC1(C(=O)N1C3CCC1CN(C)C3)Cn1c-2c(C2CCCCC2)c2ccc(C(=O)NS(=O)(=O)CC(F)F)cc21 (stereo not drawn) | 1 to 500 nM | 1 to 500 nM | 
COc1ccc2c(c1)C1CC1(C(=O)N1C3CCC1CN(C)C3)Cn1c-2c(C2CCCCC2)c2ccc(C(=O)NS(=O)(=O)C(F)(F)F)cc21 (stereo not drawn) | 1 to 500 nM | 1 to 500 nM | 
COc1ccc2c(c1)C1CC1(C(=O)N1C3CCC1CN(C)C3)Cn1c-2c(C2CCCCC2)c2ccc(C(=O)NS(=O)(=O)N(C)C)cc21 (stereo not drawn) [drawing 24] |  |  | IC50 [1, 2]: 1 to 500 nM; EC50 (HCV replicon cells; HCV replicon cells, FRET or luciferase activity, read-out: EC50): 1 to 500 nM
CNS(=O)(=O)NC(=O)c1ccc2c(C3CCCCC3)c3n(c2c1)CC1(C(=O)N2C4CCC2CN(C)C4)CC1c1cc(OC)ccc1-3 (stereo not drawn) [drawing 29] | 1 to 500 nM | 1 to 500 nM | 
COc1ccc2c(c1)C1CC1(C(=O)N1C3CCC1CN(C)C3)Cn1c-2c(C2CCCCC2)c2ccc(C(=O)NS(=O)(=O)N3CCC3)cc21 (stereo not drawn) [drawing 30] |  |  | IC50 ([1]; HCV NS5B RdRp genotype 1b enzyme): 1 to 500 nM; EC50 (HCV replicon cells; HCV replicon cells, FRET or luciferase activity): 1 to 500 nM
COc1ccc2c(c1)C1CC1(C(=O)N1C3CCC1CN(C)C3)Cn1c-2c(C2CCCCC2)c2ccc(C(=O)NS(=O)(=O)N3CCOCC3)cc21 (stereo not drawn) [drawing 31] | 1 to 500 nM | 1 to 500 nM | 
COc1ccc2c(c1)C1CC1(C(=O)N1C3CCC1CN(C)C3)Cn1c-2c(C2CCCCC2)c2ccc(C(=O)NS(=O)(=O)N3CCN(C)CC3)cc21 (stereo not drawn) [drawing 32] | 1 to 500 nM | 1 to 500 nM | 
COc1ccc2c(c1)C1CC1(C(=O)N1C3CCC1CN(Cc1ccccc1)C3)Cn1c-2c(C2CCCCC2)c2ccc(C(=O)NS(=O)(=O)N(C)C)cc21 (stereo not drawn) [drawing 33] | 1 to 500 nM | 1 to 500 nM | 
COc1ccc2c(c1)C1CC1(C(=O)N1C3CCC1CNC3)Cn1c-2c(C2CCCCC2)c2ccc(C(=O)NS(=O)(=O)N(C)C)cc21 (stereo not drawn) [drawing 34] | 1 to 500 nM | 1 to 500 nM | 
COc1ccc2c(c1)C1CC1(C(=O)N1C3CCC1CN(C(C)=O)C3)Cn1c-2c(C2CCCCC2)c2ccc(C(=O)NS(=O)(=O)N(C)C)cc21 (stereo not drawn) [drawing 35] | 1 to 500 nM | 1 to 500 nM | 
CCN1CC2CCC(C1)N2C(=O)C12CC1c1cc(OC)ccc1-c1c(C3CCCCC3)c3ccc(C(=O)NS(=O)(=O)N(C)C)cc3n1C2 (stereo not drawn) [drawing 36] | 1 to 500 nM | 1 to 500 nM | 
COc1ccc2c(c1)C1CC1(C(=O)N1C3CCC1CN(C(C)C)C3)Cn1c-2c(C2CCCCC2)c2ccc(C(=O)NS(=O)(=O)N(C)C)cc21 (stereo not drawn) [drawing 37] | 1 to 500 nM | 1 to 500 nM | 
